Measurements published in patent US6703413B2 (Rhode Island Hospital, priority 1999, dated 2004).
Where two headings read alike, the source gives them in different places.

Assays:
MNT-1 melanoma cells = experiment: Cell growth inhibition, 3 d exposure, cell counting; assay type: cell-based; conditions: Homo sapiens, 72 h
Method: (§1) One ml of this cell suspension was added to each well of a 12 well cell culture plate that contained 3 ml of appropriate media plus serum. […] Control wells received 40 μl of 5% Kollidon 17 PF alone. Seventy-two hours later, all cells were harvested by trypsinization and cell number determined electronically using a Coulter Model Z1 particle counter (Coulter Corp., Miami, Fla.) to assess cell growth inhibition. Each experiment was performed in duplicate and repeated a minimum of three times.
(§2) Cells were seeded at a density of 1-5×10^4 cells in each well of a 6 well tissue culture flask. […] After three days, cells were harvested by trypsinization and cell number determined electronically. Cell growth inhibition was determined by comparison to non-Taurolidine exposed control cultures. The IC50 was calculated as the concentration required to inhibit cell number by 50%.

[1] = system: NIH-3T3 murine fibroblasts; experiment: as above; assay type: cell-based
Method: as §1, §2

[2] = system: SKOV-3 human ovarian tumor cells; experiment: as above; assay type: cell-based; conditions: SK-OV-3, 72 h, SKOV-3 (ovary)
Method: as §1, §2

U-251 glioma cells = experiment: as above; assay type: cell-based; conditions: Homo sapiens, 72 h, U-251 (brain)
Method: as §1, §2

[3] = system: panel of human and murine tumor cell lines; experiment: Cell growth inhibition, panel summary; assay type: cell-based; conditions: for IC50: 72 h; for cytotoxic concentration lower than that for antibacterial/antibiotic effect: versus concentrations used to inhibit bacterial cell growth
Method: Parallel studies were carried out to assess whether disruption of cell adhesion played a role in the cytotoxic activity.
as §1, §2

[4] = system: NIH-3T3 murine fibroblasts; experiment: Cell cycle distribution and sub-G0/G1 DNA debris, flow cytometry; assay type: cell-based; conditions: NIH-3T3, 48 h
Method: (§3) Three×10^5 cells were seeded in plastic tissue culture flasks. […] Control cultures received an appropriate volume of Kollidine-17P. […] The percentage of DNA debris in the sub-G0/G1 region was assessed using cytofluorometric techniques. Each bar represents the mean (±SE) of three determinations. ** p≦0.01, *** p≦0.001, **** p≦0.0001
(§4) For flow cytometry studies, 1×10^6 PA-1, SKOV-3, or NIH-3T3 cells were incubated for 24 h in appropriate media containing serum. […] Control cultures for each cell line were incubated in media containing 40 μl of 5% Kollidon 17 PF alone. Forty-eight hours later, all cells were harvested by trypsinization and prepared for cytofluorometric analysis by standard methods. For example, harvested cells were resuspended in ice cold phosphate-buffered saline at a final cell density of 2×10^6 cells/ml. The cells then were stained for 30 min at room temperature in the dark with a solution of 0.05 mg/ml propidium iodide, 0.6% Igepal, and 1% sodium citrate. Flow cytometry was performed by FACScan (Becton Dickinson, Plymouth, England) using the ModFit LT program (Becton Dickinson). Statistical analysis was performed with the Kruskal Wallis non-parametric ANOVA test followed by Dunn's multiple comparisons test using Instat.
(§5) Three×10^5 cells were seeded in plastic tissue culture flasks. […] Control cultures received an appropriate volume of Kollidine-17P. After an additional 48 h, cells were harvested, stained with propidium iodide, and cell cycle distribution assessed using cytofluorometric techniques. Each value represents the percentage of cells in the noted cell cycle phases and is the mean±SEM of three determinations.

[5] = system: PA-1 human ovarian tumor cells; experiment: as above; assay type: cell-based; conditions: for Cell Cycle Distribution, G0G1 / Cell Cycle Distribution, G2/M / Cell Cycle Distribution, S: PA1, 48 h
Method: as §3, §4, §5

[6] = system: SKOV-3 human ovarian tumor cells; experiment: as above; assay type: cell-based; conditions: for Cell Cycle Distribution, G0G1 / Cell Cycle Distribution, G2/M / Cell Cycle Distribution, S: SKOV3, 48 h
Method: as §3, §4, §5

NIH-3T3 cells = experiment: PARP cleavage, Western-blot; assay type: cell-based, murine; conditions: NIH-3T3, 24 h exposure to 50 or 100 μM
Method: Two×10^6 cells were seeded in 150 cm^2 tissue culture flasks. […] After an additional twenty-four hours, cells were harvested, cell number determined, and aliquots derived from equal cell numbers generated from each exposure condition. Total proteins from these whole cell lysates were separated by SDS-PAGE and transferred to nitrocellulose filters. Filters were then immunoblotted to detect intact PARP protein and cleavage fragments by using the clone C-2-10 mouse monoclonal anti-PARP antibody (Zymed Laboratories, San Francisco, Calif.). The resulting protein-antibody complexes were visualized by chemiluminescence techniques.
Western-blot analysis was used to assess of PARP cleavage. Two×10^6 cells were seeded into separate 75 cm^2 tissue culture flasks containing 20 ml of tissue culture media plus serum. […] Twenty-four hours after the addition of Taurolidine, cells were harvested cell number determined, and aliquots containing an equal cell number were generated from each exposure condition. Total proteins from whole cell lysates generated from these aliquots were separated by SDS-PAGE and electrotransferred to nitrocellulose filters. Filters were then processed to detect intact PARP protein and cleavage fragments by using the clone C-2-10 mouse monoclonal anti-PARP antibody (Zymed Laboratories, San Francisco, Calif.). […]

[7] = system: HL-60 human promyelocytic cell line; experiment: Apoptosis induction in non-adherent cancer cells; assay type: cell-based
[8] = system: advanced recurrent glioblastoma multiforma; experiment: Clinical use in tumor patients; assay type: in vivo, human
Method: Taurolidine was administered by i.p. lavage immediately following surgery for removal of recurrent ovarian tumors. For patients with glioblastoma, taurolidine was administered systemically.
Four patients, which were diagnosed with advanced recurrent glioblastoma multiforma, were treated with taurolidine. The prognosis for this group of patients was determined to be approximately 8 weeks of survival.

[9] = system: TNF; interleukins 1, 6, and 10; VEGF; TGF; experiment: Factors controlling angiogenesis in treated patients; assay type: in vivo, human; conditions: metastatic colon cancer patients, compared to placebo
Method: Patients with metastatic colon cancer were treated with taurolidine and several factors controlling angiogenesis were measured.

ovarian tumor cells = experiment: DNA fragmentation, agarose-gel electrophoresis; assay type: cell-based, human; conditions: 50 μM

Structure (SMILES): O=S1(=O)CCN(CN2CCS(=O)(=O)NC2)CN1 [Taurolidine, Bis-(1,1-dioxoperhydro-1,2,4-thiadiazinyl-4)methane]
- IC50 (MNT-1 melanoma cells): 22.1 ± 2.1 µM
- IC50 [1]: 11.9 ± 1.8 µM
- IC50 ([1]; Mus musculus, NIH3T3, 72 h): ~10 µM
- IC50 [2]: 31.6 ± 7 µM
- IC50 (U-251 glioma cells): 20.1 ± 2.7 µM
- IC50 ([3]; 3 d exposure, panel of human and murine tumor cell lines, read-out: IC50s over all cell lines evaluated): 10 to 50 µM
- IC50 ([3]; 3-day exposure, human cancer cell lines, read-out: concentration required to inhibit tumor cell growth (IC50)): 12.5 to 50 µM
- cytotoxic concentration lower than that for antibacterial/antibiotic effect [3]: approximately 100 fold
- cytotoxic concentration lower than that for antibacterial/antibiotic effect ([3]; listed as taurolidine): at least 1000 fold
- Cell Cycle Distribution, G0G1 ([4]; 25 μM): 42.5 ± 9.6%
- Cell Cycle Distribution, G2/M ([4]; 25 μM): 13.0 ± 4.0%
- Cell Cycle Distribution, S ([4]; 25 μM): 44.9 ± 5.6%
- Cell Cycle Distribution, G0G1 ([4]; 50 μM): 33.9 ± 10.2%
- Cell Cycle Distribution, G2/M ([4]; 50 μM): 21.8 ± 4.6%
- Cell Cycle Distribution, S ([4]; 50 μM): 44.3 ± 5.9%
- Cell Cycle Distribution, G0G1 ([4]; 100 μM): 25.8 ± 1.7%
- Cell Cycle Distribution, G2/M ([4]; 100 μM): 11.0 ± 11.0%
- Cell Cycle Distribution, S ([4]; 100 μM): 63.2 ± 9.8%
- DNA debris in the sub-G0/G1 region ([4]; 25-100 μM): did not significantly affect the appearance of DNA debris
- Cell Cycle Distribution, G0G1 ([5]; 25 μM): 28.4 ± 0.5%
- Cell Cycle Distribution, G2/M ([5]; 25 μM): 24.7 ± 0.9%
- Cell Cycle Distribution, S ([5]; 25 μM): 46.8 ± 0.6%
- Cell Cycle Distribution, G0G1 ([5]; 50 μM): 23.7 ± 2.2%
- Cell Cycle Distribution, G0G1 ([5]; 100 μM): 28.4 ± 5.6%
- Cell Cycle Distribution, G2/M ([5]; 100 μM): 27.2 ± 17.9%
- Cell Cycle Distribution, S ([5]; 100 μM): 44.5 ± 23.5%
- DNA debris in the sub-G0/G1 region ([5]; PA-1, 48 h, 25-100 μM): appearance of DNA debris in the sub-G0G1 region
- Cell Cycle Distribution, G0G1 ([6]; 25 μM): 45.8 ± 2.7%
- Cell Cycle Distribution, G2/M ([6]; 25 μM): 12.3 ± 3.1%
- Cell Cycle Distribution, S ([6]; 25 μM): 41.9 ± 4.2%
- Cell Cycle Distribution, G0G1 ([6]; 50 μM): 30.7 ± 9.4%
- Cell Cycle Distribution, G2/M ([6]; 50 μM): 30.3 ± 10.5%
- Cell Cycle Distribution, S ([6]; 50 μM): 45.5 ± 12.4%
- Cell Cycle Distribution, G0G1 ([6]; 100 μM): 19.9 ± 6.1%
- Cell Cycle Distribution, G2/M ([6]; 100 μM): 25.9 ± 7.8%
- Cell Cycle Distribution, S ([6]; 100 μM): 54.2 ± 8.6%
- DNA debris in the sub-G0/G1 region ([6]; SKOV-3, 48 h, 25-100 μM): appearance of DNA debris in the sub-G0G1 region
- PARP cleavage (NIH-3T3 cells): little evidence of this proteolytic event
- exposure time that induces apoptosis [7]: 90 min
- patients in whom the tumor mass decreased or stayed the same ([8]; 20 g i.v. over 6 hours twice a week, at least one 5 week regimen): 3 out of the 4
- tolerability in patients ([8]; i.p. lavage (recurrent ovarian tumors) or systemic (glioblastoma)): well tolerated
- survival after initiation of therapy, each patient alive ([8]; prognosis approximately 8 weeks): ≥ 14 weeks
- factors controlling the growth of blood vessels [9]: decreased
- DNA fragmentation (ovarian tumor cells): overt DNA fragmentation
